Where a name gives a salt, the structure may show the parent alone.
Tests used:
[1] = tested on: MDA-MB-435; test: In vitro proliferation assay (MTT), MDA-MB-435; format: cell-based, human; conditions: Homo sapiens, MDA-MB-435, MTT assay; value (SD, n) where given; read-out: MB-435 Breast (IC50 µM)
Method: (§1) The proliferation of tumor cells can be measured using a tetrazolium salt-based assay known as the MTT (3-[4,5-Dimethylthiazol-2-yl]-2,5-diphenyltetrazolium bromide) assay. […] For the assay, the cell lines are plated onto 96 well plates at 1000 to 2500 cells/well (depending on the properties of the individual cell lines), left to attach and recover overnight. […] After 3 days, the cells are incubated with MTT dye (3-[4,5-Dimethylthiazol-2-yl]-2,5-diphenyltetrazolium bromide, Sigma # M5655, 10 mg/ml in Hank's Buffered Saline) to estimate the amount of live cells remaining vs. concentration for the test compounds. […] The MTT and culture medium is then removed from the cultures and 200 µl of DMSO is added to solubilize the dye from the cell layer. The absorbance at 570 nm is determined for each culture using a Spectramax plate reader (Molecular Devices).
(§2) IC50s were determined from the raw data from either the MTT or SRB assays.
(§3) All of the cell lines were obtained from American Type Tissue Collection, with the ATCC accession number in parentheticals. MCF-7 and MDA-MB-231 cells were grown in improved minimum essential medium (Biofluids) without phenol red, supplemented with 5 % fetal bovine serum, 0.01 mg/ml gentamicin and 3 mM L-glutamine.

[2] = tested on: PC-3; test: In vitro proliferation assay (MTT), PC-3; format: cell-based, human; conditions: Homo sapiens, PC-3, MTT assay; value (SD, n) where given; read-out: PC-3 Prostate (IC50 µM)
Method: as §1, §2, §3

[3] = biological target: cdk2/cyclin E (Homo sapiens, UniProt P24941); test: Cyclin-dependent kinase assay, cdk2/cyclin E; conditions: CDK2 IC50, nM, GST-pRb substrate, 10 µM ATP
[4] = biological target: cdk4/cyclin D1 (Homo sapiens, UniProt P11802); test: Cyclin-dependent kinase assay, cdk4/cyclin D1; format: biochemical; conditions: cyclin D1/cdk4; GST-pRb substrate, 10 µM ATP
[5] = biological target: cdk1/cyclin B (Homo sapiens, UniProt P06493); test: Cyclin-dependent kinase assay, cdk1/cyclin B; conditions: CDK1 IC50, nM, Histone H1, 10 µM ATP
Chain of cdk1/cyclin B (P06493 whole entry): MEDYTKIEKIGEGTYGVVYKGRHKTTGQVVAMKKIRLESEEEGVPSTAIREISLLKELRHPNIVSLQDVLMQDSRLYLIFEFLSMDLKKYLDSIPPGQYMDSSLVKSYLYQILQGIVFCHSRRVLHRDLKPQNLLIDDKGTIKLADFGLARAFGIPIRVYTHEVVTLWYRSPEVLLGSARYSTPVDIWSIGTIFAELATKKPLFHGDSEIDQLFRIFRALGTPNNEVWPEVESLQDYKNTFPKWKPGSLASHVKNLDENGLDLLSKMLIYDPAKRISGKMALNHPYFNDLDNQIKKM
Chain of cdk1/cyclin B (P14635 whole entry partner): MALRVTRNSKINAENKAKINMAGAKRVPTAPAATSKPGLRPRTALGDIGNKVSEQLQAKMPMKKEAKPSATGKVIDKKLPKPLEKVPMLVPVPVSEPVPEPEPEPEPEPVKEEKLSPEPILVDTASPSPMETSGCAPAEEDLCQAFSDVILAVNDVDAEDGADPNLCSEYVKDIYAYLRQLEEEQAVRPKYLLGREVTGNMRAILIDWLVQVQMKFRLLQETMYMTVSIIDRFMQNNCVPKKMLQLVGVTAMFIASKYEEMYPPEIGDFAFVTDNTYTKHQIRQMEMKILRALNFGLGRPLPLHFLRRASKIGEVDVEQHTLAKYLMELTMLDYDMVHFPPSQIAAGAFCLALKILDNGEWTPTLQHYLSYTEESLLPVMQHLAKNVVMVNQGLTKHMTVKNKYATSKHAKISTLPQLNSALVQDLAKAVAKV

Chain of cdk4/cyclin D1 (P11802 whole entry): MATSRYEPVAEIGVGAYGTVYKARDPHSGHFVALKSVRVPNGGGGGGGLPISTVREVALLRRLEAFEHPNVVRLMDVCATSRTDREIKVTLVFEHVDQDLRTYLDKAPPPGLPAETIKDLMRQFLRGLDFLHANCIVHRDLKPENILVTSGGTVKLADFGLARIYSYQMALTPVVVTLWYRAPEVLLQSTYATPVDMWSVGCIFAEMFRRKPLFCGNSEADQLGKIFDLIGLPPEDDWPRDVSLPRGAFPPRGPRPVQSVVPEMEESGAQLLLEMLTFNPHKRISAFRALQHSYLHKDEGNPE
Chain of cdk4/cyclin D1 (P24385 whole entry partner): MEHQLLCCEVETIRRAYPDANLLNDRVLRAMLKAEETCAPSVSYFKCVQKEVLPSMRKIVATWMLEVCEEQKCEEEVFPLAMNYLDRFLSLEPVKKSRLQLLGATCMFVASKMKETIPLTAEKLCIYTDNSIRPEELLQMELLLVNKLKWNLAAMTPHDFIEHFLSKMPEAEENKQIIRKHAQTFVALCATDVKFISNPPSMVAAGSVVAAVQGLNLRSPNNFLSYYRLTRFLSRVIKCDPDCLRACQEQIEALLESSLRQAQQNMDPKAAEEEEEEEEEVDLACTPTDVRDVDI

| SMILES | IC50 [1] | IC50 [2] | IC50 [3] | IC50 [4] | IC50 [5] |
| --- | --- | --- | --- | --- | --- |
| NC1CCC(Nc2nc(NC3CCN(C(=O)C4CC4c4ccccc4)CC3)c3ncn(C4CCCC4)c3n2)CC1 (racemic) [compound 43, (±)-trans-1-{4-[2-(4-Amino-cyclohexylamino)-9-cyclopentyl-9H-purin-6-ylamino]-piperidin-1-y1}-1-(2-phenyl-cyclopropyl)-methanone dihydrochloride] | 0.47 µM | 0.59 µM | 77 nM | – | – |
| CCCCC(CC)C(=O)N1CCC(Nc2nc(N[C@H]3CC[C@H](N)CC3)nc3c2ncn3C2CCCC2)CC1 (mixture of isomers) [compound 57, (±)-trans-1-{4-[2-(4-Amino-cyclohexylamino)-9-cyclopentyl-9H-purin-6-ylamino]-piperidin-1-yl}-2-ethyl-hexan-1-one dihydrochloride] | 0.96 µM | 1.13 µM | 480 nM | 1300 nM | 193 nM |
| CCCCC(CC)COC(=O)N1CCC(Nc2nc(N[C@H]3CC[C@H](N)CC3)nc3c2ncn3C2CCCC2)CC1 (mixture of isomers) [compound 97, (±)-trans-4-[2-(4-Amino-cyclohexylamino)-9-cyclopentyl-9H-purin-6-ylamino]-piperidine-1-carboxylic acid 2-ethyl-hexyl ester dihydrochloride] | 1.52 µM | 1.65 µM | – | – | – |
| N[C@H]1CC[C@H](Nc2nc(NC3CCN(C(=O)NC4CC4c4ccccc4)CC3)c3ncn(C4CCCC4)c3n2)CC1 (mixture of isomers) [compound 156, (±)-trans-4-[2-(4-Amino-cyclohexylamino)-9-cyclopentyl-9H-purin-6-ylamino]-piperidine-1-carboxylic acid (2-phenyl-cyclopropyl)-amide dihydrochloride] | 0.28 µM | 0.39 µM | 79 nM | 1620 nM | 75 nM |
| CCCCc1ccc(C(=O)N2CCC(Nc3nc(N[C@H]4CC[C@H](N)CC4)nc4c3ncn4C3CCCC3)CC2)cc1 [compound 21, trans-1-{4-[2-(4-Amino-cyclohexylamino)-9-cyclopentyl-9H-puxin-6-ylamino]-piperidin-1-yl}-1-(4-butyl-phenyl)-methanone] | 1.43 µM | 1.45 µM | 121 nM | – | – |
| CCCCCCCc1ccc(C(=O)N2CCC(Nc3nc(N[C@H]4CC[C@H](N)CC4)nc4c3ncn4C3CCCC3)CC2)cc1 [compound 24, trans-1-{4-[2-(4-Amino-cyclohexylamino)-9-cyclopentyl-9H-purin-6-ylamino]-piperidin-1-yl}-1-(4-heptyl-phenyl)-methanone] | 2.18 µM | 3.97 µM | – | – | – |
| CC(C)COC(=O)N1CCC(Nc2nc(N[C@H]3CC[C@H](N)CC3)nc3c2ncn3C2CCCC2)CC1 [compound 91, trans-4-[2-(4-Amino-cyclohexylamino)-9-cyclopentyl-9H-purin-6-ylamino]-piperidine-1-carboxylic acid isobutyl ester dihydrochloride] | 0.36 µM | 0.37 µM | – | – | – |
| CCCOC(=O)N1CCC(Nc2nc(N[C@H]3CC[C@H](N)CC3)nc3c2ncn3C2CCCC2)CC1 [compound 96, trans-4-[2-(4-Amino-cyclohexylamino)-9-cyclopentyl-9H-purin-6-ylamino]-piperidine-1-carboxylic acid propyl ester dihydrochloride] | 0.35 µM | 0.35 µM | – | – | – |
| CCCCCCOC(=O)N1CCC(Nc2nc(N[C@H]3CC[C@H](N)CC3)nc3c2ncn3C2CCCC2)CC1 [compound 98, trans-4-[2-(4-Amino-cyclohexylamino)-9-cyclopentyl-9H-purin-6-ylamino]-piperidine-1-carboxylic acid hexyl ester dihydrochloride] | 0.66 µM | 0.82 µM | – | – | – |
| COc1cc(COC(=O)N2CCC(Nc3nc(N[C@H]4CC[C@H](N)CC4)nc4c3ncn4C3CCCC3)CC2)c([N+](=O)[O-])cc1OC [compound 101, trans-4-[2-(4-Amino-cyclohexylamino)-9-cyclopentyl-9H-purin-6-ylamino]-piperidine-1-carboxylic acid 4,5-dimethoxy-2-nitro-benzyl ester dihydrochloride] | 0.24 µM | 0.27 µM | 80 nM | – | 31 nM |
| CC(C)(C)COC(=O)N1CCC(Nc2nc(N[C@H]3CC[C@H](N)CC3)nc3c2ncn3C2CCCC2)CC1 [compound 103, trans-4-[2-(4-Amino-cyclohexylamino)-9-cyclopentyl-9H-purin-6-ylamino]-piperidine-1-carboxylic acid 2,2-dimethyl-propyl ester dihydrochloride] | 0.51 µM | 0.44 µM | – | – | – |

Further lines, results first:

| IC50 [1] | IC50 [2] | IC50 [3] | IC50 [4] | IC50 [5] | SMILES |
| --- | --- | --- | --- | --- | --- |
| 1.67 µM | 1.58 µM | 44 nM | 206 nM | 43 nM | N[C@H]1CC[C@H](Nc2nc(NC3CCN(C(=O)C(O)c4ccccc4)CC3)c3ncn(C4CCCC4)c3n2)CC1 (mixture of isomers) [compound 50, (±)-trans-1-{4-[2-(4-Amino-cyclohexylamino)-9-cyclopentyl-9H-purin-6-ylamino]-piperidin-1-yl}-2-hydroxy-2-phenyl-ethanone dihydrochloride] |
| 2.89 µM | 2.55 µM | 364 nM | 373 nM | 197 nM | N[C@H]1CC[C@H](Nc2nc(NC3CCN(C(=O)c4ccccc4Br)CC3)c3ncn(C4CCCC4)c3n2)CC1 [compound 13, trans-1-{4-[2-(4-Amino-cyclohexylamino)-9-cyclopentyl-9H-purin-6-ylamino]-piperidin-1-yl}-1-(2-bromo-phenyl)-methanone] |
| 2.98 µM | 2.99 µM | 514 nM | 17 nM | 164 nM | N[C@H]1CC[C@H](Nc2nc(NC3CCN(C(=O)c4c(Cl)cccc4Cl)CC3)c3ncn(C4CCCC4)c3n2)CC1 [compound 14, trans-1-{4-[2-(4-Amino-cyclohexylamino)-9-cyclopentyl-9H-purin-6-ylamino]-piperidin-1-yl}-1-(2,6-dichloro-phenyl)-methanone] |
| 0.67 µM | 0.74 µM | 291 nM | 732 nM | 61 nM | N[C@H]1CC[C@H](Nc2nc(NC3CCN(C(=O)c4ccc(Cl)c(Cl)c4)CC3)c3ncn(C4CCCC4)c3n2)CC1 [compound 15, trans-1-{4-[2-(4-Amino-cyclohexylamino)-9-cyclopentyl-9H-purin-6-ylamino]-piperidin-1-yl}-1-(3,4-dichloro-phenyl)-methanone] |
| 1.73 µM | 2 µM | – | – | – | N[C@H]1CC[C@H](Nc2nc(NC3CCN(C(=O)c4ccc([N+](=O)[O-])cc4)CC3)c3ncn(C4CCCC4)c3n2)CC1 [compound 27, trans-1-{4-[2-(4-Amino-cyclohexylamino)-9-cyclopentyl-9H-purin-6-ylamino]-piperidin-1-yl}-1-(4-nitro-phenyl)-methanone] |
| 0.75 µM | 0.8 µM | 77 nM | – | – | CC(C)=CC(=O)N1CCC(Nc2nc(N[C@H]3CC[C@H](N)CC3)nc3c2ncn3C2CCCC2)CC1 [compound 30, trans 1-{4-[2-(4-Amino-cyclohexylamino)-9-cyclopentyl-9#H!-purin-6-ylamino]-piperidin-1-yl}-3-methyl-but-2-en-1-one dihydrochloride] |
| – | – | 66 nM | – | – | N[C@H]1CC[C@H](Nc2nc(NC3CCN(C(=O)/C=C/c4ccccc4)CC3)c3ncn(C4CCCC4)c3n2)CC1 [compound 62, trans-(E)-1-{4-[2-(4-Amino-cyclohexylamino)-9-cyclopentyl-9H-purin-6-ylamino]-piperidin-1-yl}-3-phenyl-propenone dihydrochloride] |
| 0.38 µM | 0.58 µM | – | – | – | N[C@H]1CC[C@H](Nc2nc(NC3CCN(C(=O)OCc4ccccc4)CC3)c3ncn(C4CCCC4)c3n2)CC1 [compound 90, trans-4-[2-(4-Amino-cyclohexylamino)-9-cyclopentyl-9H-purin-6-ylamino]-piperidine-1-carboxylic acid benzyl ester dihydrochloride] |
| 0.49 µM | 0.57 µM | 7 nM | – | – | N[C@H]1CC[C@H](Nc2nc(NC3CCN(S(=O)(=O)c4cccs4)CC3)c3ncn(C4CCCC4)c3n2)CC1 [compound 128, trans-N^2&-(4-Amino-cyclohexyl)-9-cyclopentyl-N^6-[1-(thiophene-2-sulfonyl)-piperidin-4-yl]-9H-purine-2,6-diamine dihydrochloride] |
| – | – | 28 nM | 74 nM | 20 nM | Cc1cccc(NC(=O)N2CCC(Nc3nc(N[C@H]4CC[C@H](N)CC4)nc4c3ncn4C3CCCC3)CC2)c1 [compound 210, trans-4-[2-(4-Amino-cyclohexylamino)-9-cyclopentyl-9H-purin-6-ylamino]-piperidine-1-carboxylic acid (3-methyl-phenyl)-amide dihydrochloride] |

Source: EP1377579B1 (Aventis Pharmaceuticals Inc., priority 2000, dated 2002)
